In US20060293259A1, “Compositions and methods of use of derivatized flavanols” (Mars, Incorporated, priority 2005, published 2006):

Columns and labels:
[1] = test system: human umbilical vein endothelial cell (HUVEC); test: MTT assay for toxic effects in HUVEC; type: cell-based; conditions: acute effect test, 100 nM, and 10 μM
Method: (§1) Test compounds were evaluated with respect to their potential to acutely (2 hours) and chronically (5 doses given in a 24 h period) modulate NO production. Positive controls (acetylcholine and/or histamine) and negative control L-NNMA (NO synthase inhibitor) were included in all experiments. Cell counts and total protein were used to assess intra-assay variation. Potential toxic effects of tested compounds were also monitored (MTT reduction was measured).
(§2) For the acute effect test, HUVECs were incubated with a single dose of 4′-O-ethyl (−) epicatechin, 4′-O-methyl (−) catechin, 3′-O-methyl (−) catechin which may be prepared as described in Ex. 1 using (−) catechin as a starting material, for 2 and 24 hours at concentrations of 100 nM, […], and 10 μM at 37 C and 5% CO2.

[2] = test system: human umbilical vein endothelial cell (HUVEC); test: NO production (NOx in culture medium) by HUVEC; type: cell-based; conditions: for effect on NO production, chronic effect test: 5 subsequent doses, each for 24 hours; for effect on NO production, acute effect test: single dose, 2 and 24 hours, 100 nM, and 10 μM
Method: Alkylated compounds, obtained as described in Example 1, were investigated for their effect on nitric oxide (NO) production and vasorelaxation using serum-free human umbilical vein endothelial cell (HUVEC) culture system in vitro. NO production by endothelial cells and relaxation of pre-constricted aortic rings are two main markers for evaluating cardiovascular effects of test compounds.
HUVECs obtained from a single donor were cultured in serum free, low protein (0.5 g/l), antibiotic-free cell culture medium supplemented with essential growth factors, nutrients and minerals. […] The cell culture medium was substituted with apo-transferrin, superoxide dismutase, and catalase to exclude secondary effects of test compounds involving their auto-oxidation mediated hydrogen peroxide formation.
as §1
NO production was evaluated by measuring the total amount of all major nitric oxide end products (NOx, including nitrate, nitrite, nitrosothiols) present in the cell culture medium. […] The amount of NO released from the culture medium was subsequently evaluated by measuring the chemiluminescence emitted during the stoichiometrical reaction between ozone and NO using NO Analyzer (Sievers Instruments, Inc. Boulder, Colo.).
The data presented herein were obtained from three experiments and were expressed as the concentration of NO present (in μmol/l) (as NOx) in the cell culture medium+/−standard deviation (SD). The data were corrected for the NOx intrinsically present in the fully supplemented cell culture medium and normalized with respect to the volume of media from which the sample was drawn. Data were analyzed using Student's t-test with a 95% level of confidence. P values equal to or less than […] were defined as statistically significant.
as §2
For the chronic effect test, HUVECs were incubated with 5 subsequent doses of test compounds, each for 24 hours. After each 24 hour treatment, culture medium was replaced.

[3] = test system: CD11b on monocytes and neutrophils; test: Leukocyte activation (CD11b expression) on monocytes and neutrophils; type: cell-based, human; conditions: FIG. 2; collagen 0.125-0.5 μg/ml; 10 min; flavanols 0.3 mM, aspirin 100 μM
Method: (§3) Platelet aggregation was measured using a platelet counting technique, and formation of platelet/monocyte conjugates (P/M) and platelet/neutrophil conjugates (P/N) by flow cytometry. In later experiments the activation state of platelets associated with leukocytes (CD62P) was also measured and also the activation state of the leukocytes themselves (CD11b).
Flow cytometry was carried out using commercially available fluorescent labelled antibodies on a Facscan (Becton Dickinson, UK) equipped with a 5 W laser operating at 15 mW power and a wavelength of 488 nm or an LSRII flow cytometer (Becton Dickinson, UK) equipped with an additional red Trigon laser operating at a wavelength of 633 nm. […]
Platelet-leukocyte conjugate formation was measured in the same stirred samples used to measure platelet aggregation. […] Fluorescence parameters were acquired with logarithmic amplification. Platelet monocyte (P/M) and platelet neutrophil (P/N) conjugates were quantified as median CD42a (FITC) fluorescence of the monocyte (P/M mf) or neutrophil population (P/N mf). Leukocyte activation was measured by CD11b (AlexaFluor647) expression (CD11b-M for monocytes and CD11b-N for neutrophils). Platelet activation (P-selectin expression) was measured by CD62P (PE) positivity of the platelets associated with leukocytes as (CD62P-M on P/M and CD62P-N on P/N). […]

[4] = test system: platelet/neutrophil conjugates; test: Platelet/neutrophil conjugate (P/N) formation in whole blood by flow cytometry; type: cell-based, human; conditions: collagen 0.125-0.5 μg/ml, 10 min, aspirin 100 μM; for inhibition of platelet/neutrophil conjugate formation (P/N): first experiment (FIG. 1), test flavanols 0.3 mM; for inhibition of P/N: second experiment (FIG. 2), flavanols 0.3 mM
Method: as §3
(§4) Flow cytometry was carried out using commercially available fluorescent labelled antibodies on a Facscan (Becton Dickinson, UK) equipped with a 5 W laser operating at 15 mW power and a wavelength of 488 nm or an LSRII flow cytometer (Becton Dickinson, UK) equipped with an additional red Trigon laser operating at a wavelength of 633 nm.
(§5) Blood was obtained from healthy volunteers, who denied taking any aspirin or non-steroidal anti-inflammatory drugs (NSAID) in the previous 10 days. This blood was dispensed into graduated polystyrene tubes that contained hirudin (final concentration 50 μg/ml) and a small volume of the flavanol under investigation or ethanol as control. The final concentration of ethanol in the blood was always 0.3%. In some experiments, aspirin (ASA) or saline as control was also included in the tube. The tubes were then capped and inverted three times to ensure adequate mixing then placed in the MSA at 37° C. for 30 min before the experiments were performed, during which time the blood was left undisturbed. A further sample of blood was taken into a commercially prepared vacutainer tube that contained K2EDTA as anticoagulant.
(§6) Platelet-leukocyte conjugate formation was measured in the same stirred samples used to measure platelet aggregation. Sub samples were taken 4 min or 10 min following the addition of agonist and transferred into the appropriate antibody or antibody mixture. These were then incubated in the dark at room temperature for not less than 20 min. Following red cell lysis and a washing procedure the cell suspensions were applied to either the FACScan or the LSRII flow cytometer. Leukocytes were identified by logical gating from dot plots of forward scatter (cell size) and side scatter (cell granularity) profiles acquired with linear amplification. Monocytes were identified by their forward scatter-side scatter profile and CD14 (PE) positivity, while neutrophils were identified in the same way but were negative for CD14 expression. The “pan” leukocyte marker, CD45 (PerCP) was also used to identify the leukocyte population. Fluorescence parameters were acquired with logarithmic amplification. Platelet monocyte (P/M) and platelet neutrophil (P/N) conjugates were quantified as median CD42a (FITC) fluorescence of the monocyte (P/M mf) or neutrophil population (P/N mf). Leukocyte activation was measured by CD11b (AlexaFluor647) expression (CD11b-M for monocytes and CD11b-N for neutrophils). Platelet activation (P-selectin expression) was measured by CD62P (PE) positivity of the platelets associated with leukocytes as (CD62P-M on P/M and CD62P-N on P/N).
The FACScan was used to measure the fluorescent probes in experiments where three colors were used together, but the LSRII was needed in order to study four colors. The LSRII is a more sensitive machine and produces higher fluorescence values (mf) than the FACScan. Results obtained on the FACScan cannot be directly compared with the results obtained on the LSRII.
Blood was obtained from three different volunteers and the platelet aggregation and platelet/leukocyte conjugate formation was measured in response to collagen (0, 0.125, 0.25 and 0.5 μg/ml). In this experiment the highest collagen concentration used previously (1 μg/ml) was replaced with a lower concentration of collagen (0.125 μg/ml) to optimise the inhibition brought about by the different flavanols. In these experiments (+) catechin (Sigma) was used at 1 mM, aspirin (100 μM) and the test flavanols at 0.3 mM with the exception of EP−(0.1 mM) and 4 mCAT (0.05 mM). […]

[5] = test system: CD62P on platelets associated with monocytes and neutrophils; test: Platelet activation (CD62P, P-selectin) on platelets associated with leukocytes; type: cell-based, human; conditions: FIG. 2; collagen 0.125-0.5 μg/ml; 10 min; flavanols 0.3 mM, aspirin 100 μM
Method: as §3, §4
Blood was obtained from healthy volunteers, who denied taking any aspirin or non-steroidal anti-inflammatory drugs (NSAID) in the previous 10 days. This blood was dispensed into graduated polystyrene tubes that contained hirudin (final concentration 50 μg/ml) and a small volume of the flavanol under investigation or ethanol as control. […]
Platelet-leukocyte conjugate formation was measured in the same stirred samples used to measure platelet aggregation. […] Fluorescence parameters were acquired with logarithmic amplification. Platelet monocyte (P/M) and platelet neutrophil (P/N) conjugates were quantified as median CD42a (FITC) fluorescence of the monocyte (P/M mf) or neutrophil population (P/N mf). Leukocyte activation was measured by CD11b (AlexaFluor647) expression (CD11b-M for monocytes and CD11b-N for neutrophils). Platelet activation (P-selectin expression) was measured by CD62P (PE) positivity of the platelets associated with leukocytes as (CD62P-M on P/M and CD62P-N on P/N).
From this point on it was decided to include measures of the extent of the activation of both platelets and leukocytes in the conjugates that formed following addition of collagen to blood. P-selectin (CD62P) was measured on the platelets associated with leukocytes in the conjugates that formed. Leukocyte activation was measured as the amount of CD11b that was expressed. […]

platelets in whole blood = test: Collagen-induced platelet aggregation in whole blood (platelet counting); type: cell-based, human; conditions: aspirin 100 μM; for inhibition of collagen-induced platelet aggregation: first experiment (FIG. 1), collagen 0.125, 0.25, 0.5 μg/ml, 4 and 10 min, test flavanols 0.3 mM, mean of n=9; for inhibition of collagen induced aggregation: second experiment (FIG. 2), collagen 0.125-0.5 μg/ml, 4 min, flavanols 0.3 mM, n=9
Method: as §3
Blood samples were studied using the Multi-Sample Agitator (MSA) produced by the Medical Engineering Unit (University of Nottingham). The MSA is used to maintain blood samples at 37° C. and to agitate small samples of blood at a stir speed of 1,000 rpm as required.
as §5
Following a 30 min pre-incubation period, aliquots of blood (480 μl) were dispensed into small polystyrene tubes each containing a stir bar and stirred for 2 min in the MSA. After 2 min a solution (20 μl) of agonist or vehicle control were added to the tubes. These were then stirred in the MSA for up to 10 min at which time the platelet aggregates were fixed by mixing a small sub sample with fixative solution in a 1:2 ratio (v/v). The platelet count in the fixed samples was determined using the UltraFlo-100 Whole Blood Platelet Counter. Platelet aggregation was calculated as the percentage loss of single platelets with reference to the platelet count of the EDTA sample.
Blood was obtained from three different volunteers and the platelet aggregation and platelet/leukocyte conjugate formation was measured in response to collagen (0, 0.125, 0.25 and 0.5 μg/ml). In this experiment the highest collagen concentration used previously (1 μg/ml) was replaced with a lower concentration of collagen (0.125 μg/ml) to optimise the inhibition brought about by the different flavanols. In these experiments (+) catechin (Sigma) was used at 1 mM, aspirin (100 μM) and the test flavanols at 0.3 mM with the exception of EP−(0.1 mM) and 4 mCAT (0.05 mM). Aggregation was measured at 4 and 10 min following agonist addition and platelet/leukocyte conjugate formation only at 10 min.
The absolute response of the blood from the different volunteers to collagen varied. This meant that the relative inhibitory effects of a flavanol was dependent on the volunteer's responsiveness to the particular collagen concentration used. For this reason it was decided that an appropriate means of analysing the results, for comparative purposes, would be to calculate the mean values for each flavanol irrespective of the collagen concentration used. (Because, for each of the three blood samples three concentrations of collagen were used, the results are each the means (±sem) of nine individual values).
Blood was obtained from three different volunteers and the platelet aggregation (4 min) and platelet/leukocyte conjugate formation (10 min) was measured in response to collagen (0, 0.125, 0.25 and 0.5 μg/ml). At the same time the activation of platelets and leukocytes in the conjugates were measured by incubation with CD62P and CD11b antibodies. In these experiments aspirin was used at a concentration of 100 μM and derivatized flavanols and procyanidins at 0.3 mM with the exception of EP-(0.1 mM) and 4mCAT (0.05 mM). […]

[6] = test system: platelet/monocyte conjugates; test: Platelet/monocyte conjugate (P/M) formation in whole blood by flow cytometry; type: cell-based, human; conditions: collagen 0.125-0.5 μg/ml, 10 min, aspirin 100 μM; for inhibition of platelet/monocyte conjugation (P/M): first experiment (FIG. 1), test flavanols 0.3 mM; for inhibition of P/M: second experiment (FIG. 2), flavanols 0.3 mM
Method: as §3, §4, §5, §6
The FACScan was used to measure the fluorescent probes in experiments where three colors were used together, but the LSRII was needed in order to study four colors. The LSRII is a more sensitive machine and produces higher fluorescence values (mf) than the FACScan. […]
Blood was obtained from three different volunteers and the platelet aggregation and platelet/leukocyte conjugate formation was measured in response to collagen (0, 0.125, 0.25 and 0.5 μg/ml). […]

Row | Compound | toxic effects (MTT assay) [1] | effect on NO production, chronic effect test [2] | effect on NO production, acute effect test [2] | inhibition of leukocyte activation (CD11b on monocytes and neutrophils) [3] | inhibition of platelet/neutrophil conjugate formation (P/N) [4] | inhibition of P/N [4] | inhibition of platelet activation (CD62P) on monocytes and neutrophils [5] | inhibition of collagen-induced platelet aggregation (platelets in whole blood) | inhibition of collagen induced aggregation (platelets in whole blood) | inhibition of platelet/monocyte conjugation (P/M) [6] | inhibition of P/M [6] | effect on NO production, chronic effect test ([2]; 10 μM concentration, p=0.004)
1 | COc1ccc([C@H]2Oc3cc(O)cc(O)c3C[C@@H]2O)cc1O [4′-O-methyl (−) catechin] | did not have toxic effects | no statistically significant effect | no statistically significant effect |  |  |  |  |  |  |  |  | 
2 | COc1ccc(C2Oc3cc(O)cc(O)c3CC2O)cc1O (stereo not shown) [4mEPCAT, 4′OMe epicatechin] |  |  |  | among the most effective | among the most effective | most effective | best inhibited | significant effect | among the most effective | significant effect | significant effect | 
3 | CCOc1ccc([C@H]2Oc3cc(O)cc(O)c3C[C@H]2O)cc1O [4′-O-ethyl (−) epicatechin] | did not have toxic effects |  | no statistically significant effect |  |  |  |  |  |  |  |  | statistically significant increase
4 | COc1cc(C2Oc3cc(O)cc(O)c3CC2O)ccc1O (stereo not shown) [3mCAT, 3′OMe catechin] |  |  |  |  | among the most effective | most effective | best inhibited | significant effect | among the most effective | significant effect | significant effect | 
5 | CC(=O)Oc1ccccc1C(=O)O [ASA, acetyl salicylic acid, reference compound] |  |  |  | no effect | effectively inhibited | expected effects | expected effects | effectively inhibited | expected effects | effectively inhibited |  | 
6 | 3′-O-methyl (−) catechin | did not have toxic effects | no statistically significant effect | no statistically significant effect |  |  |  |  |  |  |  |  | 
